Laboratory results published in patent US20220315598A1, “Oxygen-containing Heterocyclic Compound, Preparation Method Therefor and Use Thereof” (SHANGHAI YINGLI PHARMACEUTICAL CO., LTD, priority 2019, published 2022).
Where two headings read alike, the source gives them in different places.

Columns and labels:
NCI-H358 cells = test: Proliferation inhibition on NCI-H358 cell line by CTG method; format: cell-based, human; conditions: for IC50: CellTiter Glo, 120 hours
Description: (§1) NCI-H358 was a human non-small cell lung cancer cell with KRAS G12C mutation; A549 was a human non-small cell lung cancer cell with KRAS G12V mutation: and A375 was a wild-type malignant melanoma cell. The inhibitory effects of compounds on different mutations were evaluated by testing the proliferation inhibitory activity of these compounds on the three cell lines.
(§2) 40 μL of cell suspension to be tested was added to each well (except for peripheral wells) of three 384-well plates (plate 1: NCI-H358 cell suspension: plate 2: A549 cell suspension: plate 3: A375 cell suspension). The plates were placed in a carbon dioxide incubator overnight. […] The plates were incubated in a carbon dioxide incubator for 120 hours. To the 384-well plates were added 25 μL of CellTiter Glo reagents, and the mixture was shaken in the dark for 10 minutes and incubated for 10 minutes. The plates were read on the EnVision plate reader. XLFit was used to draw inhibition rate curves of efficacy and IC50 values were calculated. […] “---” represents not determined.
Experiments for Testing Proliferation Inhibition of Compounds on NCI-H358 Cell Lines by CTG Method

MIA PaCa-2 cells = test: Proliferation inhibition on MIA PaCa-2 cell line by CTG method; format: cell-based, human; conditions: for IC50: Homo sapiens, MIA PaCa-2, Table 2, CellTiter Glo, 120 hours
Description: Experiments for Testing Proliferation Inhibition of Compounds on MIA PaCa-2 Cell Lines by CTG Method
40 μL of MIA PaCa-2 cell suspension was added to each well (except for peripheral wells) of 384-well plates. The plates were placed in a carbon dioxide incubator overnight. […] The plates were incubated in a carbon dioxide incubator for 120 hours. To the 384-well plates were added 25 μL of CellTiter Glo reagents, and the mixture was shaken in the dark for 10 minutes and incubated for 10 minutes. The plates were read on the EnVision plate reader. XLFit was used to draw inhibition rate curves of efficacy and IC50 values were calculated. […] “---” represents not determined.
MIA PaCa-2 was a human pancreatic cancer cell with KRAS G12C mutation. The activity of compounds can be evaluated by detecting the proliferation inhibitory activity of these compounds on such cell line.

A549 cells = test: Proliferation inhibition on A549 cell line by CTG method; format: cell-based, human
Description: as §1, §2

A375 cells = test: Proliferation inhibition on A375 cell line by CTG method; format: cell-based; conditions: Table 1, CellTiter Glo, 120 hours, class symbol
Description: as §1, §2

[1] = Homo sapiens, NCI-H358, 120 h, Table 1, number, read-out: IC50 (μM): (H358)
[2] = Homo sapiens, NCI-H358, 120 h, Table 2, number, read-out: IC50 (nM) H358
[3] = Homo sapiens, NCI-H358, 120 h, Table 1, class symbol, read-out: IC50 (μM): (H358)
[4] = Homo sapiens, A549, 120 h, Table 1, CellTiter Glo, class symbol
[5] = Table 1, class symbol, read-out: IC50 (μM): (H358)
[6] = Table 1, CellTiter Glo, 120 hours, class symbol
[7] = Homo sapiens, NCI-H358, 120 h, Table 2, class symbol, read-out: IC50 (nM) H358

| IC50 (NCI-H358 cells; [3]) [µM] | IC50 (A549 cells; [4]) [µM] | IC50 (A375 cells; Homo sapiens, A-375) [µM] | Structure (SMILES) | other results |
| --- | --- | --- | --- | --- |
|  |  |  | C=CC(=O)N1CCN(c2nc(OC[C@@H]3CCCN3C)nc3c2CCN(c2ccccc2C(F)(F)F)C3)C[C@@H]1CC#N [Comparative compound 1′, reference compound] | IC50 (NCI-H358 cells; [1]): 0.0073 µM; IC50 (NCI-H358 cells; [2]): 0.0073 µM; IC50 (MIA PaCa-2 cells; number): 3.9 nM |
|  |  |  | C=CC(=O)N1CCN(c2nc(OC[C@@H]3CCCN3C)nc3c2CC[C@H](c2ccccc2C(F)(F)F)C3)C[C@@H]1CC#N [Comparative compound 3′, reference compound] | IC50 (MIA PaCa-2 cells; number): 8.3 nM |
| > 1 | > 1 |  | C=CC(=O)N1CCN(c2nc(OC[C@@H]3CCCN3C)nc3c2COCC3)C[C@@H]1CC#N [Compound 1] | IC50 (NCI-H358 cells; [1]): > 10 µM; IC50 (A549 cells; Homo sapiens, A549, 120 h, Table 1, CellTiter Glo, number): > 10 µM |
|  |  |  | C=CC(=O)N1CCN(c2nc(OC[C@@H]3CCCN3C)nc3c2COC(c2ccccc2C(F)(F)F)C3)C[C@@H]1CC#N (stereo partly shown) [Compound 2-1] | IC50 (NCI-H358 cells; [5]): < 1 µM; IC50 (A375 cells): > 1 µM; IC50 (A549 cells; [6]): > 1 µM |
| < 1 | > 1 | > 1 | C=CC(=O)N1CCN(c2nc(OC[C@@H]3CCCN3C)nc3c2COC(c2ccccc2C(F)(F)F)C3)C[C@@H]1CC#N (stereo partly shown) [Compound 2-2] | IC50 (NCI-H358 cells; [1]): 0.0025 µM; IC50 (NCI-H358 cells; [2]): 0.0025 µM; proliferation inhibitory activity on NCI-H358 cells, in words (NCI-H358 cells; Table 1): significantly better than that of the corresponding comparative compound 1′; IC50 (MIA PaCa-2 cells; number): 1.9 nM; proliferation inhibitory activity, comparison in words (MIA PaCa-2 cells; text on Table 2 (H358 and MIA PaCa-2 cells)): significantly better than that of the corresponding comparative compounds 1′ and 3′ |
|  |  | > 1 | C=CC(=O)N1CCN(c2nc(OC[C@@H]3CCCN3C)nc3c2COC(c2cccc4ccccc24)C3)C[C@@H]1CC#N (stereo partly shown) [Compound 3-1] |  |
|  |  |  | C=CC(=O)N1CCN(c2nc(OC[C@@H]3CCCN3C)nc3c2COC(c2cccc4ccccc24)C3)C[C@@H]1CC#N (stereo partly shown) [Compound 3-2] | IC50 (A375 cells): > 1 µM |
| < 1 | > 1 |  | C=CC(=O)N1CCN(c2nc(OC[C@@H]3CCCN3C)nc3c2COC(c2cccc4ccccc24)C3)C[C@@H]1CC#N (stereo partly shown) [Compound 3] |  |
|  |  | > 1 | C=CC(=O)N1CCN(c2nc(OC[C@@H]3CCCN3C)nc3c2COC(c2cccc4cccc(C)c24)C3)C[C@@H]1CC#N (stereo partly shown) [Compound 4-1] | IC50 (NCI-H358 cells; [5]): < 1 µM |
|  |  |  | C=CC(=O)N1CCN(c2nc(OC[C@@H]3CCCN3C)nc3c2COC(c2cccc4cccc(C)c24)C3)C[C@@H]1CC#N (stereo partly shown) [Compound 4-2] | IC50 (NCI-H358 cells; [5]): < 1 µM; IC50 (A375 cells): > 1 µM; IC50 (A549 cells; [6]): > 1 µM |
| < 1 | > 1 |  | C=CC(=O)N1CCN(c2nc(OC[C@@H]3CCCN3C)nc3c2COC(c2cccc4cccc(C)c24)C3)C[C@@H]1CC#N (stereo partly shown) [Compound 4] |  |
| < 1 | > 1 |  | C=CC(=O)N1CCN(c2nc(OCCN(C)C)nc3c2COC(c2cccc4cccc(C)c24)C3)C[C@@H]1CC#N (stereo partly shown) [Compound 5] |  |
| < 1 | > 1 |  | C=CC(=O)N1CCN(c2nc(OCCN(CC)CC)nc3c2COC(c2cccc4cccc(C)c24)C3)C[C@@H]1CC#N (stereo partly shown) [Compound 6-2] |  |
| < 1 | > 1 |  | C=CC(=O)N1CCN(c2nc(OCCCN(C)C)nc3c2COC(c2cccc4cccc(C)c24)C3)C[C@@H]1CC#N (stereo partly shown) [Compound 7] |  |
| < 1 | > 1 |  | C=CC(=O)N1CCN(c2nc(OC[C@@H]3CCCN3C)nc3c2COC(c2cccc4cccc(C)c24)C3)CC1 (stereo partly shown) [Compound 8] |  |
| < 1 | > 1 |  | C=CC(=O)N1CCN(c2nc(N(C)CCN(C)C)nc3c2COC(c2cccc4cccc(C)c24)C3)C[C@@H]1CC#N (stereo partly shown) [Compound 9] |  |
| < 1 | > 1 | > 1 | C/C=C/C(=O)N1CCN(c2nc(OC[C@@H]3CCCN3C)nc3c2COC(c2cccc4cccc(C)c24)C3)C[C@@H]1CC#N (stereo partly shown) [Compound 10] |  |
| < 1 | > 1 | > 1 | C=CC(=O)N1CCN(c2nc(OC[C@@H]3CCCN3C)nc3c2COC(c2cccc4cccc(C)c24)C3)[C@@H](C)C1 (stereo partly shown) [Compound 11-2] |  |

| IC50 (NCI-H358 cells; [3]) [µM] | IC50 (A549 cells; [4]) [µM] | IC50 (A375 cells; Homo sapiens, A-375) [µM] | Structure (SMILES) | other results |
| --- | --- | --- | --- | --- |
| < 1 | > 1 | > 1 | C=C(F)C(=O)N1CCN(c2nc(OC[C@@H]3CCCN3C)nc3c2COC(c2cccc4cccc(Cl)c24)C3)C[C@@H]1CC#N (stereo partly shown) [Compound 12-2] |  |
| < 1 | > 1 | > 1 | C=C(F)C(=O)N1CCN(c2nc(OC[C@@H]3CCCN3C)nc3c2COC(c2cccc4cccc(C)c24)C3)C[C@@H]1CC#N (stereo partly shown) [Compound 13] |  |
| < 1 | > 1 | > 1 | C=CC(=O)N1CCN(c2nc(OC(C)CN(C)C)nc3c2COC(c2cccc4cccc(C)c24)C3)C[C@@H]1CC#N (stereo partly shown) [Compound 14] |  |
| < 1 | > 1 | > 1 | C=CC(=O)N1CCN(c2nc(OC[C@@H]3CC(F)(F)CN3C)nc3c2COC(c2cccc4cccc(C)c24)C3)C[C@@H]1CC#N (stereo partly shown) [Compound 15] |  |
| < 1 | > 1 | > 1 | C=CC(=O)N1CCN(c2nc(OC[C@H]3CCCN3C)nc3c2COC(c2cccc4cccc(C)c24)C3)C[C@@H]1CC#N (stereo partly shown) [Compound 16] |  |
| < 1 | > 1 | > 1 | Cc1cccc2cccc(C3Cc4nc(OC[C@@H]5CCCN5C)nc(N5CCN(C(=O)/C=C/CN(C)C)[C@@H](CC#N)C5)c4CO3)c12 (stereo partly shown) [Compound 17] |  |
| < 1 | > 1 | > 1 | C=C(F)C(=O)N1CCN(c2nc(OC[C@H]3CCCN3C)nc3c2COC(c2ccccc2C(F)(F)F)C3)C[C@@H]1CC#N (stereo partly shown) [Compound 19-2] |  |
| < 1 | > 1 | > 1 | CC#CC(=O)N1CCN(c2nc(OC[C@@H]3CCCN3C)nc3c2COC(c2cccc4cccc(C)c24)C3)C[C@@H]1CC#N (stereo partly shown) [Compound 24] |  |
| < 1 | > 1 | > 1 | C=CC(=O)N1CCN(c2nc(OC[C@@H]3CCCN3C)nc3c2COC(c2cccc4cccc(Cl)c24)C3)C[C@@H]1CC#N (stereo partly shown) [Compound 25] |  |
| < 1 | > 1 | > 1 | C=C(F)C(=O)N1CCN(c2nc(OC[C@@H]3CCCN3C)nc3c2COC(c2ccccc2Cl)C3)C[C@@H]1CC#N (stereo partly shown) [Compound 30] |  |
| < 1 | > 1 | > 1 | Cc1cccc2cccc(C3Cc4nc(OC[C@@H]5CCCN5C)nc(N5CCN(C(=O)/C=C/CN6CCOCC6)[C@@H](CC#N)C5)c4CO3)c12 (stereo partly shown) [Compound 31] |  |
| < 1 | > 1 | > 1 | C=C(F)C(=O)N1CCN(c2nc(OC[C@H]3CCCN3C)nc3c2COC(c2cccc4cccc(Cl)c24)C3)C[C@@H]1CC#N (stereo partly shown) [Compound 32-2] |  |
|  |  |  | CN(C)C/C=C/C(=O)N1CCN(c2nc(OC[C@@H]3CCCN3C)nc3c2CO[C@H](c2cccc4cccc(Cl)c24)C3)C[C@@H]1CC#N [Compound 36] | IC50 (NCI-H358 cells; [7]): < 1 µM |
|  |  |  | C=CC(=O)N1CCN(c2nc(OC[C@@H]3CCCN3C)nc3c2COC(c2cncc4ccccc24)C3)C[C@@H]1CC#N (stereo partly shown) [Compound 40] | IC50 (MIA PaCa-2 cells; class symbol): < 1000 nM |
|  |  |  | CN1CCC[C@H]1COc1nc2c(c(N3CCN(C#N)[C@@H](CC#N)C3)n1)CO[C@H](c1cccc3cccc(Cl)c13)C2 [Compound 41] | IC50 (NCI-H358 cells; [7]): < 1 µM |
|  |  |  | CC(=O)/C=C/C(=O)N1CCN(c2nc(OC[C@@H]3CCCN3C)nc3c2CO[C@H](c2cccc4cccc(Cl)c24)C3)C[C@@H]1CC#N [Compound 44] | IC50 (NCI-H358 cells; [7]): < 1 µM |
|  |  |  | C=CC(=O)N1CCN(c2nc(NCCN(C)C)nc3c2CO[C@H](c2cccc4cccc(Cl)c24)C3)C[C@@H]1CC#N [Compound 45] | IC50 (NCI-H358 cells; [7]): < 1 µM |
|  |  |  | C=CC(=O)N1CCN(c2nc(SCCN(C)C)nc3c2CO[C@H](c2cccc4cccc(Cl)c24)C3)C[C@@H]1CC#N [Compound 46] | IC50 (NCI-H358 cells; [7]): < 1 µM |
